Results as given in patent US20260234187A1, “ANTIMICROBIAL PEPTIDES” (MATERIAS S.R.L., priority 2020, published 2026).
Where no end group is shown, it is not given here.

Experiments:
[1] = test system: L. monocytogenes (LM2); format: cell-based, Listeria monocytogenes
Procedure: (§1) The evaluation of the Minimum Bactericidal Concentration (MBC), i.e., the lowest concentration of antimicrobial agent capable of 99.9% inhibition of bacterial growth on plates, was carried out as described in Bílikova et al, (2015, Peptides 68:190-196). […] It should be noted that the peptide object of the present invention is more powerful and efficient than the peptide IDR-1018-K6 (described in patent application WO2019012158) against the pathogenic bacteria L. monocytogenes and S. typhimurium, with bactericidal concentration values 4-fold and 7-fold lower, respectively, compared to those shown by IDR-1018-K6.

[2] = test system: Aspergillus brasiliensis (ATCC 9341); assay: antifungal activity, plate count, MFC; format: cell-based; conditions: A. brasiliensis; 25 μM, 6 h
Procedure: The antifungal activity of the RiLK1 peptide was determined against Aspergillus brasiliensis. For this purpose, a stock culture was prepared in which 10^5 CFUs of A. brasiliensis were inoculated in 10 ml of buffered peptone water. A reference strain (ATCC 9341) was used for this fungal species. The culture was incubated for 6 h at 37° C. with the RiLK1 peptide at 25 μM concentrations. At the same time, control samples were incubated without adding the peptide. 100 μl of the samples thus prepared were seeded on DG18 plates (Dichloran 18% Glycerol Agar-ISO 21527-2) and incubated at 25° C. for 7 days. All experimental conditions investigated used the plate count method to estimate the fungicidal activity of the peptide. Specifically, the numbers of colonies grown on agar plates seeded with the fungal suspensions in the absence or presence of the individual peptide dilutions were counted and compared. The standard deviations of the triplicate incubations of each plate were determined using statistical software. The evaluation of the Minimum Fungicidal Concentration (MFC), i.e., the lowest concentration of antifungal agent capable of 99.9% inhibition of fungal growth on plates, was carried out as described in Bílikova et al, (2015, Peptides 68:190-196).

[3] = test system: Listeria monocytogenes LM2; format: cell-based; conditions: LM2, 6 h
Procedure: The bactericidal activity of the RiLK1 peptide was assessed against both Gram positive (Listeria monocytogenes LM2 and Staphilococcus aureus) and Gram negative (Salmonella typhimurium and Escherichia coli) pathogenic bacteria. The assessment of the concentration of the two peptides capable of inhibiting 50% of bacterial growth (IC50) was performed by the broth microdilution assay as described in Wang H X and Ng TB (2003, Peptides 24:969-972). The standard deviations and the IC50s for triplicate incubations of each plate were determined using GraphPad Prism version 6.00 (Graph-Pad Software, La Jolla California USA). All experimental conditions investigated used the plate count method to estimate the bactericidal activity of the peptides. Specifically, the numbers of colonies grown on agar plates seeded with the bacterial suspensions in the absence or presence of the individual peptide dilutions were counted and compared. The standard deviations of the triplicate incubations of each plate were determined using statistical software. A control stock suspension was prepared in which 10^3 CFUs of L. monocytogenes were inoculated in 10 ml of Half Fraser Broth and serial dilutions (100 to 0.01 μM) of the suspension were performed. […]

[4] = test system: E. coli; format: cell-based, Escherichia coli
Procedure: as §1

For RLKWVRIWRR-NH2 [RiLK1, RLKWVRIWRR], the “bactericidal concentration lower compared to IDR-1018-K6” value ([1]; L. monocytogenes) was 4 fold, the MBC ([1]; L. monocytogenes (LM2)) was 2 µM and the “Drop Log CFU/ml” value [2] was 5 Log CFU/ml. For the same substance, the “post-treatment decrease in the fungal load” value [2] was 5 Log, the IC50 [3] was 460 nM and the MBC [4] was 2 µM.
